The values below come from US8440837B2, “2-substituted-ethynylthiazole derivatives and uses of same” (H. Lundbeck A/S, priority 2009, dated 2013).

The target of the first assay is human metabotropic glutamate receptor 5 (hmGluR5) (UniProt P31424). Description: Calcium mobilization (FLIPR) assay, positive allosteric modulation of the EC20 glutamate response. The format is cell-based. Conditions: HEK 293 cells, EC20 glutamate response. As for the experimental part: The cDNA for human metabotropic glutamate receptor 5 (hmGluR5) was a generous gift from S. Nakanishi (Kyoto University, Kyoto, Japan). The […] was stably expressed in a HEK 293 cell line and grown in Dulbecco's Modified Eagle Medium (DMEM) (Invitrogen, Carlsbad, Calif.) with supplements (10% bovine calf serum, 4 mM glutamine, 100 units/mL penicillin, 100 μg/mL streptomycin and […]) at 37° C., 5% CO2. Twenty-four hours prior to assay, cells were seeded into 384-well black wall microtiter plates coated with poly-D-lysine. Just prior to assay, media was aspirated and cells dye-loaded (25 μL/well) with 3 μM Fluo-4/0.01% pluronic acid in assay buffer (Hank's Balanced Saline Solution (HBSS)): 150 mM NaCl, 5 mM KCl, 1 mM CaCl2, 1 mM MgCl2, plus 20 mM N-2-Hydroxyethylpiperazine-N′-2-ethanesulfonic acid (HEPES), pH 7.4, 0.1% bovine serum albumin (BSA) and 2.5 mM probenicid) for 1 hour in 5% CO2 at 37° C. After excess dye was discarded, cells were washed in assay buffer and layered with a final volume equal to 30 μL/well. Basal fluorescence is monitored in a fluorometric imaging plate reader (FLIPR) (Molecular Devices, Sunnyvale, Calif.) with an excitation wavelength of 488 nm and an emission range of 500 to 560 nm. Laser excitation energy was adjusted so that basal fluorescence readings were approximately 10,000 relative fluorescent units. Cells were stimulated with an EC20 or an EC80 concentration of glutamate in the presence of a compound to be tested, both diluted in assay buffer, and relative fluorescent units were measured at defined intervals (exposure=0.6 sec) over a 3 min period at room temperature. Basal readings derived from negative controls were subtracted from all samples. Maximum change in fluorescence was calculated for each well. Concentration-response curves derived from the maximum change in fluorescence were analyzed by nonlinear regression (Hill equation).
A silent allosteric modulator (SAM) can be identified by using a combination of both the calcium mobilization assay data and the radioligand binding data. As used herein, the term “silent allosteric modulator” refers to a ligand that binds to an allosteric site of the receptor but has no measurable intrinsic efficacy.
`CCOC1CCN(C(=O)c2cnc(C#Cc3ccccc3)s2)CC1` [Example 122, (4-Ethoxy-piperidin-1-yl)-(2-phenylethynyl-thiazol-5-yl)-methanone]: the “maximum modulation (Emax)” value was 130%.
With `F[C@@H]1CCN(Cc2cnc(C#Cc3ccccc3)s2)C1` [Example 230, 5-((R)-3-Fluoro-pyrrolidin-1-ylmethyl)-2-phenylethynyl-thiazole], the “maximum modulation (Emax)” value is reported as 110%.
The same measure, in the same setting: then `O=C(c1cnc(C#Cc2ccccc2)s1)N1CC2(COC2)C1` [Example 167, (2-Oxa-6-aza-spiro[3.3]hept-6-yl)-(2-phenylethynyl-thiazol-5-yl)-methanone], with 150%.
In the case of `O=C(c1cnc(C#Cc2ccccc2)s1)N1CCc2[nH]ncc2C1` [Example 77, (2-Phenylethynyl-thiazol-5-yl)-(1,4,6,7-tetrahydro-pyrazolo[4,3-c]pyridin-5-yl)-methanone], the “maximum modulation (Emax)” value is recorded as 120%.
As for `O=C(c1cnc(C#Cc2ccccc2)s1)N1CC2CCCC2C1` (centres unmarked) [Example 144, (Hexahydro-cyclopenta[c]pyrrol-2-yl)-(2-phenylethynyl-thiazol-5-yl)-methanone], the “maximum modulation (Emax)” value worked out at 110%.
Same read-out and setting: the same measure for `O=C(c1cnc(C#Cc2ccsc2)s1)N1CCCCC1` [Example 190, Piperidin-1-yl-(2-thiophen-3-ylethynyl-thiazol-5-yl)-methanone]: 78%.
On the same count and under the same terms, then `Cc1cccc(C#Cc2ncc(C(=O)N3CCC(O)CC3)s2)c1` [Example 25, (4-Hydroxy-piperidin-1-yl)-(2-m-tolylethynyl-thiazol-5-yl)-methanone], with 50%; and `O=C(c1cnc(C#Cc2cccnc2)s1)N1CCCCC1` [Example 188, Piperidin-1-yl-(2-pyridin-3-ylethynyl-thiazol-5-yl)-methanone], with 95%.
Regarding `CC(c1cnc(C#Cc2ccccc2)s1)N1CCOCC1` (centres unmarked) [Example 232, 4-[1-(2-Phenylethynyl-thiazol-5-yl)-ethyl]-morpholine], the “maximum modulation (Emax)” value is recorded as 62%.
On the same count and under the same terms, the same measure for `O=C(c1cnc(C#Cc2ccc(F)cc2)s1)N1CCCCC1` [Example 30, [2-(4-Fluoro-phenylethynyl)-thiazol-5-yl]-piperidin-1-yl-methanone]: 110%; for `O=C(c1cnc(C#Cc2ccccc2)s1)N1CCc2sccc2C1` [Example 135, (6,7-Dihydro-4H-thieno[3,2-c]pyridin-5-yl)-(2-phenylethynyl-thiazol-5-yl)-methanone]: 180%.
The same measure, in the same setting: then `Cc1nc(C#Cc2ccccc2)sc1C(=O)N1CCC(C)CC1` [Example 14, (4-Methyl-2-phenylethynyl-thiazol-5-yl)-(4-methyl-piperidin-1-yl)-methanone], with 91%.
Same read-out and setting: the same measure for `C(#Cc1ncc(CN2CC3CCC2C3)s1)c1ccccc1` (centres unmarked) [Example 218, 2-(2-Phenylethynyl-thiazol-5-ylmethyl)-2-aza-bicyclo[2.2.1]heptane]: 79%; for `O=C(c1cnc(C#Cc2ccccc2)s1)N1CCC2(CCCO2)CC1` [Example 78]: 120%.

Still in this assay, the particulars now being: HEK 293 cells, increase in EC20 glutamate response.
Take `CCOC1CCN(C(=O)c2cnc(C#Cc3ccccc3)s2)CC1` [Example 122, (4-Ethoxy-piperidin-1-yl)-(2-phenylethynyl-thiazol-5-yl)-methanone]: the EC50 came out at 220 nM.
Regarding `F[C@@H]1CCN(Cc2cnc(C#Cc3ccccc3)s2)C1` [Example 230, 5-((R)-3-Fluoro-pyrrolidin-1-ylmethyl)-2-phenylethynyl-thiazole], the EC50 was determined as 33 nM.
As to `O=C(c1cnc(C#Cc2ccccc2)s1)N1CC2(COC2)C1` [Example 167, (2-Oxa-6-aza-spiro[3.3]hept-6-yl)-(2-phenylethynyl-thiazol-5-yl)-methanone], the concentration giving a half-maximal response (EC50) was determined as 1900 nM.
The same measure, in the same setting: the same measure for `O=C(c1cnc(C#Cc2ccccc2)s1)N1CCc2[nH]ncc2C1` [Example 77, (2-Phenylethynyl-thiazol-5-yl)-(1,4,6,7-tetrahydro-pyrazolo[4,3-c]pyridin-5-yl)-methanone]: 100 nM.
Same read-out and setting: the same measure for `O=C(c1cnc(C#Cc2ccccc2)s1)N1CC2CCCC2C1` (centres unmarked) [Example 144, (Hexahydro-cyclopenta[c]pyrrol-2-yl)-(2-phenylethynyl-thiazol-5-yl)-methanone]: 1.8 nM; for `O=C(c1cnc(C#Cc2ccsc2)s1)N1CCCCC1` [Example 190, Piperidin-1-yl-(2-thiophen-3-ylethynyl-thiazol-5-yl)-methanone]: 5.2 nM; for `Cc1cccc(C#Cc2ncc(C(=O)N3CCC(O)CC3)s2)c1` [Example 25, (4-Hydroxy-piperidin-1-yl)-(2-m-tolylethynyl-thiazol-5-yl)-methanone]: 55 nM.
The same measure, in the same setting: then `O=C(c1cnc(C#Cc2ccccc2)s1)N1CCC(N2CCCC2)C1` (centres unmarked) [Example 141, [1,3]Bipyrrolidinyl-1-yl-(2-phenylethynyl-thiazol-5-yl)-methanone], with 4000 nM; and `O=C(c1cnc(C#Cc2cccnc2)s1)N1CCCCC1` [Example 188, Piperidin-1-yl-(2-pyridin-3-ylethynyl-thiazol-5-yl)-methanone], with 6200 nM.
On to `CC(c1cnc(C#Cc2ccccc2)s1)N1CCOCC1` (centres unmarked) [Example 232, 4-[1-(2-Phenylethynyl-thiazol-5-yl)-ethyl]-morpholine], for which the EC50 came to 220 nM.
Same read-out and setting: the same measure for `O=C(c1cnc(C#Cc2ccc(F)cc2)s1)N1CCCCC1` [Example 30, [2-(4-Fluoro-phenylethynyl)-thiazol-5-yl]-piperidin-1-yl-methanone]: 29 nM; for `O=C(c1cnc(C#Cc2ccccc2)s1)N1CCc2sccc2C1` [Example 135, (6,7-Dihydro-4H-thieno[3,2-c]pyridin-5-yl)-(2-phenylethynyl-thiazol-5-yl)-methanone]: 20 nM; for `Cc1nc(C#Cc2ccccc2)sc1C(=O)N1CCC(C)CC1` [Example 14, (4-Methyl-2-phenylethynyl-thiazol-5-yl)-(4-methyl-piperidin-1-yl)-methanone]: 23 nM.
For `C(#Cc1ncc(CN2CC3CCC2C3)s1)c1ccccc1` (centres unmarked) [Example 218, 2-(2-Phenylethynyl-thiazol-5-ylmethyl)-2-aza-bicyclo[2.2.1]heptane], the half-maximal effective concentration (EC50) was 380 nM.
Still for that read-out and setting: then `O=C(c1cnc(C#Cc2ccccc2)s1)N1CCC2(CCCO2)CC1` [Example 78], with 200 nM.
